Consider 24 compounds from patent US20260125378A2, “Heterocyclic Compounds” (BeOne Medicines I GmbH, priority 2023, published 2026).

Assay [1] concerns the target T1, Full length DGKζ (in-house protein M1-V929) (Homo sapiens, UniProt Q13574).
T1 construct: His (N); TEV site (N); made in house; host or cells: Sf9 insect cells (Bac-to-Bac baculovirus)
Nature of the assay: Biochemical DGK IC50 assay (ADP-Glo, lipid micelle substrate), DGKζ. The note with it: 1 hour preincubation, 1 hour reaction, room temperature. The procedure:
(§1) Enzymatic reactions of DGKζ, DGKα and DGKδ were performed using ADP-Glo assay with lipid micelle substrate. […] Full length DGKα (D21-10BG, SignalChem) and full length DGKδ (D23-10G, SignalChem) were purchased. Lipid micelle was prepared by dissolving DAG (Sigma, 317505-10 MG) and PS (Sigma, P7769-100 MG) with chloroform which was furtherly removed by rotary evaporation. The obtained residue was resuspended in buffer containing 25 mM HEPES pH 7.0, 0.5 mM EDTA and 160 mM Octyl β-D glucopyranoside by vigorous mixing and ultrasonic (IID, Scientz).
(§2) The inhibition activities testing for the compound disclosed herein were carried out at room temperature in assay buffer containing 50 mM HEPES, 10 mM MgCl2, 0.01% BSA, 0.1 mM Na3VO4, 0.005% Tween-20 and 0.01 mM CaCl2). Compounds in DMSO were dispensed into wells of a black 384 well plate (Corning 4514) using D300e digital dispenser (Tecan). […] 3 μL 2× enzyme solution was added to wells. […] After 1 hour reaction, 5 μL ADP-Glo reagent (Promga V9101) was added and incubated for 40 minutes. 10 μL Kinase Detection reagent was added and incubated for 30 minutes. Luminescence was measured on a microplate reader (PHERAstar FSX, BMG labtech). The IC50S are calculated based on inhibition of enzyme activity in the presence of increasing concentrations of compounds.
Human His-TEV-DGK-zeta-pFastBac1 and human baculovirus samples was generated using the Bac- to -Bac baculovirus expression system (Invitrogen) according to the manufacturer's protocol. The DNA used for expression of DGK-zeta, have SEQ ID Nos: 1. Baculovirus amplification was achieved using infected SF9 cells at 1:2000 virus/cells ratios, and grown for 96 hours at 27° C. post-transfected.
The expression scaled up for each protein was carried out in the […] from CORNING. 4 L of 3×10^6 cells/mL Sf9 cells (Expression System, Invitrogen) grown in SF900™ II SFM insect medium (Expression System) was infected with virus stock at 1:200 virus/cells ratio, and grown for 48 hours at 27° C. post-transfection. The infected cell culture was harvested by centrifugation at 6000 rpm for 15 min 4° C. in a SORVALL LYNX6000 centrifuge. The cell pellets were stored at −80° C.
Full length human DGKζ produced as described above, was purified from Sf9 baculovirus-infected insect cell paste. The cells were lysed using sonication method, and the lysates were clarified by centrifugation.
(In ADP-Glo the light output rises with the ADP produced.)

The target of assay [2] is T2, Full length DGKα (D21-10BG, SignalChem) (Homo sapiens, UniProt P23743).
T2 construct: Full length DGKα (D21-10BG, SignalChem); purchased SignalChem D21-10BG
Nature of the assay: Biochemical DGK IC50 assay (ADP-Glo, lipid micelle substrate), DGKα. The note with it: 1 hour preincubation, 1 hour reaction, room temperature. The procedure: as §1, §2

T1 sequence (Q13574 1-929 isoform Q13574-4): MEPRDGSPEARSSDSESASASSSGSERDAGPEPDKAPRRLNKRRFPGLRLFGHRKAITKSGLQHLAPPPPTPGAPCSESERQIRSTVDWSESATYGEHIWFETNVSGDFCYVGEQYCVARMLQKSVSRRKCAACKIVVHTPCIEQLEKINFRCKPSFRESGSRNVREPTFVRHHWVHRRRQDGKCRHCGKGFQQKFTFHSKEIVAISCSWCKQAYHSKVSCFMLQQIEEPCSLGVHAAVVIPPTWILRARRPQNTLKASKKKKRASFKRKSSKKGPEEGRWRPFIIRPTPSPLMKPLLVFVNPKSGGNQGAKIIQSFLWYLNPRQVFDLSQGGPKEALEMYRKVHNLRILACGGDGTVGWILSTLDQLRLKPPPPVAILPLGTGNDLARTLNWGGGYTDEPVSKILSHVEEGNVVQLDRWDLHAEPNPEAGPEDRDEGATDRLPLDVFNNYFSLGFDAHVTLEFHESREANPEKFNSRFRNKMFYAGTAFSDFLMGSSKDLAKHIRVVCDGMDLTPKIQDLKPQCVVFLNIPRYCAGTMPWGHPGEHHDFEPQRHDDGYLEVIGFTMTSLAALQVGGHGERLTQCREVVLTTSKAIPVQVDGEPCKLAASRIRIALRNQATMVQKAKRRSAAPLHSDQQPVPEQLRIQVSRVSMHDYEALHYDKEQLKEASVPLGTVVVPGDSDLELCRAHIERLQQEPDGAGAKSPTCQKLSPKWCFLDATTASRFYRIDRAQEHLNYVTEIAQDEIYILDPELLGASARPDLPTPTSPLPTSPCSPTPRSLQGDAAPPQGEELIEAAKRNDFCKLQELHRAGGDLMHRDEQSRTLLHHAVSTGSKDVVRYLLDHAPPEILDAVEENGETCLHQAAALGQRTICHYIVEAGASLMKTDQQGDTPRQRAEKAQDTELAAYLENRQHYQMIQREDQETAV
T2 sequence (P23743 whole entry): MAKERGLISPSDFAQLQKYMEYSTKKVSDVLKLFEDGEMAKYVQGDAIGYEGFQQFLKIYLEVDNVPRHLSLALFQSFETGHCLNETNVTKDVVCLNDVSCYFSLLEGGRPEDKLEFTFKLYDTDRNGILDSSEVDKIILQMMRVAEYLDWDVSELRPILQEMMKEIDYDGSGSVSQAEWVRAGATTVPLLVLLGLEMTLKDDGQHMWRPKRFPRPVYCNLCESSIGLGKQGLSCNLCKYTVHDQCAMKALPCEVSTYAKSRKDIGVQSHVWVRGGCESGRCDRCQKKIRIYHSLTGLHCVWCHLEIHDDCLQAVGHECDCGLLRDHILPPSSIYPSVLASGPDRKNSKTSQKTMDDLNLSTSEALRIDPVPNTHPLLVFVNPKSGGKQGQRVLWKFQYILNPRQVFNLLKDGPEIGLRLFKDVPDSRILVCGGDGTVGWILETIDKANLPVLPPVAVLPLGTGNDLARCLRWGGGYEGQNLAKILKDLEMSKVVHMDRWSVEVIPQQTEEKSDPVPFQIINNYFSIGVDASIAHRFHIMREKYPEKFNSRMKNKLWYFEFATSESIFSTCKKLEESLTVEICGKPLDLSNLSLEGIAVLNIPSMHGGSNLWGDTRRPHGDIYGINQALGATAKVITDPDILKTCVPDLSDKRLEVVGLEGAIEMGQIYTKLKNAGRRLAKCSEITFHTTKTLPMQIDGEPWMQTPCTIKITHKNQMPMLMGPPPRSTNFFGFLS

On to `CCn1c(CC#N)nc2c(N3C[C@@H](C)N(C(C)c4ccc(F)c5c4OC(C)(C)O5)C[C@@H]3C)nc(=O)n(C)c21` (single isomer, unassigned) [Compound A185a], for which the IC50 in assay [1] was determined as 0.806 µM; in assay [2] it was 121 µM.

Take `CCn1c(CC#N)nc2c(N3C[C@@H](C)N(C(C)c4ccc(F)cc4C(F)(F)F)C[C@@H]3C)nc(=O)n(C)c21` (single isomer, unassigned) [Compound A35a]: the values for the half-maximal inhibitory concentration (IC50) in assay [1] and in assay [2] were 2.76 µM and above 150 µM, respectively.

Take `CCn1c(CC#N)nc2c(N3C[C@@H](C)N(C(C)c4ccc5ncc(C(F)(F)F)nc5c4)C[C@@H]3C)nc(=O)n(C)c21` (stereo partly drawn) [Compound A54, 2-(6-((2S,5R)-2,5-dimethyl-4-(1-(3-(trifluoromethyl)quinoxalin-6-yl)ethyl)piperazin-1-yl)-9-ethyl-3-methyl-2-oxo-3,9-dihydro-2H-purin-8-yl)acetonitrile]: the IC50 in assay [1] was 0.037 µM; in assay [2], above 150 µM.

Take `CCn1c(CC#N)nc2c(N3C[C@@H](C)N(C(C)c4cc(C(F)(F)F)ccc4F)C[C@@H]3C)nc(=O)n(C)c21` (stereo partly drawn) [Compound A114, 2-(9-ethyl-6-((2S,5R)-4-(1-(2-fluoro-5-(trifluoromethyl)phenyl)ethyl)-2,5-dimethylpiperazin-1-yl)-3-methyl-2-oxo-3,9-dihydro-2H-purin-8-yl)acetonitrile]: the IC50 in assay [1] is 0.246 µM; in assay [2] it was 135 µM.

Regarding `CCn1c(CC#N)nc2c(N3C[C@@H](C)N(C(C)c4cccc(CN5CCOCC5)c4)C[C@@H]3C)nc(=O)n(C)c21` (stereo partly drawn) [Compound A142, 2-(6-((2S,5R)-2,5-dimethyl-4-(1-(3-(morpholinomethyl)phenyl)ethyl)piperazin-1-yl)-9-ethyl-3-methyl-2-oxo-3,9-dihydro-2H-purin-8-yl)acetonitrile], the IC50 in assay [1] is 6.3 µM; in assay [2], above 150 µM.

For `CC[C@@H]1CN(c2nc(=O)n(C)c3c2nc(CC#N)n3CC)[C@@H](C)CN1C(C)c1ccc2c(n1)OC(C)(C)CO2` (single isomer, unassigned) [Compound A158a], the IC50 amounted to 0.008 µM in assay [1] and 61.9 µM in assay [2].

With `CCn1c(CC#N)nc2c(N3C[C@@H](C)N(C(C)c4cnc5c(c4)OC(C)(C)CO5)C[C@@H]3C)nc(=O)n(C)c21` (stereo partly drawn) [Compound A76, 2-(6-((2S,5R)-4-(1-(2,2-dimethyl-2,3-dihydro-[1,4]dioxino[2,3-b]pyridin-7-yl)ethyl)-2,5-dimethylpiperazin-1-yl)-9-ethyl-3-methyl-2-oxo-3,9-dihydro-2H-purin-8-yl)acetonitrile], the results for the IC50 in assay [1] and in assay [2] were 0.419 µM and above 150 µM, respectively.

For `CCn1c(CC#N)nc2c(N3C[C@@H](C)N(C(C)c4ccc5c(c4)C(C)(C)N(C)C5=O)C[C@@H]3C)nc(=O)n(C)c21` (stereo partly drawn) [Compound A84, 2-(6-((2S,5R)-2,5-dimethyl-4-(1-(2,3,3-trimethyl-1-oxoisoindolin-5-yl)ethyl)piperazin-1-yl)-9-ethyl-3-methyl-2-oxo-3,9-dihydro-2H-purin-8-yl)acetonitrile], the 50% inhibitory concentration (IC50) in assay [1] is 0.232 µM; in assay [2], above 150 µM.

Turning to `CCn1c(CC#N)nc2c(N3C[C@@H](C)N(C(C)c4cc(F)c5c(c4)OC(C)(C)O5)C[C@@H]3C)nc(=O)n(C)c21` (single isomer, unassigned) [Compound A173a], the half-inhibitory concentration (IC50) in assay [1] came to 0.012 µM; in assay [2], 51 µM.

On to `CCn1c(CC#N)nc2c(N3C[C@@H](C)N(C(C)c4nc5c(cc4F)OCC(C)(C)O5)C[C@@H]3C)nc(=O)n(C)c21` (single isomer, unassigned) [Compound A161b], for which the IC50 in assay [1] is 2.63 µM; in assay [2] it was above 150 µM.

Take `CCn1c(CC#N)nc2c(N3C[C@@H](C)N(C(C)c4c(F)cc5c(c4F)OC(C)(C)O5)C[C@@H]3C)nc(=O)n(C)c21` (single isomer, unassigned) [Compound A176b]: the figures for the IC50 in assay [1] and in assay [2] were 0.007 µM and 7.19 µM, respectively.

On to `CC(c1ccc2c(c1)OC(C)(C)CO2)N1C[C@H](C)N(c2nc(=O)n(C)c3c2nc(CC#N)n3C)C[C@H]1C` (single isomer, unassigned) [Compound A59b], for which the IC50 in assay [1] is 0.0023 µM; in assay [2], 14.2 µM.

Regarding `CC(c1ccc2nccnc2c1)N1C[C@H](C)N(c2cc(=O)n(C)c3c2nc(CC#N)n3C)C[C@H]1C` (single isomer, unassigned) [Compound A1a], the concentration for half-maximal inhibition (IC50) is 0.009 µM in assay [1] and 14.9 µM in assay [2].

As for `[2H]C([2H])([2H])n1c(CC#N)nc2c(N3C[C@@H](C)N(C(C)c4ccc(F)cc4C(F)(F)F)C[C@@H]3C)nc(=O)n(C)c21` (stereo partly drawn) [Compound A37, 2-(6-((2S,5R)-4-(1-(4-fluoro-2-(trifluoromethyl)phenyl)ethyl)-2,5-dimethylpiperazin-1-yl)-3-methyl-9-(methyl-d3)-2-oxo-3,9-dihydro-2H-purin-8-yl)acetonitrile], the IC50 came out at 0.018 µM in assay [1] and 128 µM in assay [2].

For the compound `CC(c1ccc2c(c1)OCCO2)N1C[C@H](C)N(c2c(F)c(=O)n(C)c3c2nc(CC#N)n3C)C[C@H]1C` (single isomer, unassigned) [Compound A18a], the IC50 in assay [1] was determined as 0.019 µM; in assay [2], 23.6 µM.

Take `CCn1c(CC#N)nc2c(N3C[C@@H](C)N(C(C)c4cc(F)cc(C(F)F)c4)C[C@@H]3C)nc(=O)n(C)c21` (stereo partly drawn) [Compound A38, 2-(6-((2S,5R)-4-(1-(3-(difluoromethyl)-5-fluorophenyl)ethyl)-2,5-dimethylpiperazin-1-yl)-9-ethyl-3-methyl-2-oxo-3,9-dihydro-2H-purin-8-yl)acetonitrile]: the concentration for half-maximal inhibition (IC50) is 0.165 µM in assay [1] and 143 µM in assay [2].

With `[2H]C([2H])([2H])n1c(CC#N)nc2c(N3C[C@@H](C)N(C(C)c4ccc(F)cc4C(F)(F)F)C[C@@H]3C)nc(=O)n(C([2H])([2H])[2H])c21` (stereo partly drawn) [Compound A36, 2-(6-((2S,5R)-4-(1-(4-fluoro-2-(trifluoromethyl)phenyl)ethyl)-2,5-dimethylpiperazin-1-yl)-3,9-bis(methyl-d3)-2-oxo-3,9-dihydro-2H-purin-8-yl)acetonitrile], the values for the IC50 in assay [1] and in assay [2] were 0.017 µM and 104 µM, respectively.

Consider `CC(c1cc(F)c2c(c1)OC(C)(C)CO2)N1C[C@H](C)N(c2nc(=O)n(C)c3c2nc(CC#N)n3C)C[C@H]1C` (single isomer, unassigned) [Compound A68b], for which the IC50 was determined as 0.199 µM in assay [1] and 72.8 µM in assay [2].

For the compound `CCn1c(=O)nc(N2C[C@@H](C)N(C(C)c3ccc4c(c3)OC(C)(C)CO4)C[C@@H]2C)c2nc(CC#N)n(C)c21` (single isomer, unassigned) [Compound A61a], the IC50 worked out at 0.002 µM in assay [1] and 10.1 µM in assay [2].

For `CCn1c(CC#N)nc2c(N3C[C@@H](C)N(C(C)c4cccc(C(C)C)c4)C[C@@H]3C)nc(=O)n(C)c21` (single isomer, unassigned) [Compound A108a], the values for the IC50 in assay [1] and in assay [2] were 0.007 µM and 65.2 µM, respectively.

For the compound `CC(c1ccc2c(c1)OC(C)(C)CO2)N1C[C@H](C)N(c2nc(=O)n(C)c3c2nc(CC#N)n3C)C[C@H]1C` (single isomer, unassigned) [Compound A59a], the values for the IC50 in assay [1] and in assay [2] were 0.238 µM and 40.3 µM, respectively.

As to `COC(C)c1cc(F)ccc1C(C)N1C[C@H](C)N(c2nc(=O)n(C)c3c2nc(CC#N)n3C)C[C@H]1C` (stereo partly drawn) [Compound A28, 2-(6-((2S,5R)-4-(1-(4-fluoro-2-(1-methoxyethyl)phenyl)ethyl)-2,5-dimethylpiperazin-1-yl)-3,9-dimethyl-2-oxo-3,9-dihydro-2H-purin-8-yl)acetonitrile], the results for the IC50 in assay [1] and in assay [2] were 0.003 µM and 96.9 µM, respectively.

As to `CCn1c(CC#N)nc2c(N3C[C@@H](C)N(C(C)c4ccc(C)cc4C(F)(F)F)C[C@@H]3C)nc(=O)n(C)c21` (single isomer, unassigned) [Compound A116b], the values for the half-inhibitory concentration (IC50) in assay [1] and in assay [2] were 0.228 µM and above 150 µM, respectively.

On to `COC[C@H]1CN(C(C)c2ccc3ncc(C)nc3c2)[C@H](C)CN1c1nc(=O)n(C)c2c1nc(CC#N)n2C` (single isomer, unassigned) [Compound A13b], for which the results for the IC50 in assay [1] and in assay [2] were 0.054 µM and above 150 µM, respectively.

The term IC50 denotes the point on the concentration scale where inhibition reaches its midpoint. Read a low IC50 as inhibition by little substance.
